biological target: MAPK14 (murine); assay: Inhibition of MAPK14 Kinase Activity

Compared with `CC(C)(N)C#Cc1ccc(Cl)c(C(=O)c2ccc(Nc3ccc(F)cc3F)cc2)c1`, `COc1ccc(C#CC(C)(C)N)cc1C(=O)c1ccc(Nc2ccc(F)cc2F)cc1` is 2.3-fold higher in IC50: 6 nM for the first, 14 nM for the second.

First: COc1ccc(/C=C/C2(O)CCN(C)CC2)cc1C(=O)c1ccc(Nc2ccc(F)cc2F)cc1
Second: COc1ccc(CCC2(O)CCN(C)CC2)cc1C(=O)c1ccc(Nc2ccc(F)cc2F)cc1
The IC50 of the first is 51-fold lower: 1 nM for the first, 51 nM for the second.

First: COc1cc2nc(C)[nH]c2cc1C(=O)c1ccc(Nc2ccc(F)cc2F)cc1
Second: Cc1nc2cc(Cl)c(C(=O)c3ccc(Nc4ccc(F)cc4F)cc3)cc2[nH]1
The IC50 of the first is 7.1-fold higher: 5 nM for the first, 0.7 nM for the second. The second is the more potent here.

Going from `COc1cc2nc(C)[nH]c2cc1C(=O)c1ccc(Nc2ccc(F)cc2F)nc1` to `Cc1nc2cc(Cl)c(C(=O)c3ccc(Nc4ccc(F)cc4F)nc3)cc2[nH]1`, the IC50 falls from 21 nM to 8 nM (2.6-fold).

Going from `COc1ccc(C#CC(C)(C)N)cc1C(=O)c1ccc(Nc2ccc(F)cc2F)nc1` to `COc1ccc(C#CC(C)(C)O)cc1C(=O)c1ccc(Nc2ccc(F)cc2F)nc1`, the IC50 rises from 8 nM to 54 nM (6.8-fold).

Compared with `O=C(c1ccc(Nc2ccc(F)cc2F)nc1)c1ccccc1Cl`, `O=C(c1ccc(Nc2ccc(F)cc2F)nc1)c1cc(Br)ccc1Cl` is 3-fold higher in IC50: 101 nM for the first, 300 nM for the second.

Going from `CC(C)(N)C#Cc1ccc(Cl)c(C(=O)c2ccc(Nc3ccc(F)cc3F)nc2)c1` to `CC(C)(N)CCc1ccc(Cl)c(C(=O)c2ccc(Nc3ccc(F)cc3F)nc2)c1`, the IC50 rises from 19 nM to 160 nM (8.4-fold).

Going from `COc1ccccc1C(=O)c1ccc(Nc2ccc(F)cc2F)cc1` to `O=C(c1ccc(Nc2ccc(F)cc2F)cc1)c1ccccc1Cl`, the IC50 falls from 38 nM to 11 nM (3.5-fold). The second is the more potent here.

Compared with `COc1ccc(CCC(C)(C)O)cc1C(=O)c1ccc(Nc2ccc(F)cc2F)nc1`, `COc1ccc(CCC(C)(C)N)cc1C(=O)c1ccc(Nc2ccc(F)cc2F)cc1` is 4.2-fold lower in IC50: 479 nM for the first, 113 nM for the second. The second is the more potent here.
